Marks after values point to notes of the source that are not given here.
Tests used:
[1] = tested on: Caco-2 cells; assay: Trans-epithelial electrical resistance (TEER) of differentiated Caco-2 monolayers; assay type: cell-based, human
Protocol: (§1) All experiments were performed with human intestinal Caco-2 cells (ATCC-HTB37), acquired from the American Type Culture Collection (ATCC; Manassas, VA, USA). Caco-2 cells originate from a colorectal adenocarcinoma, but upon reaching confluence, they differentiate and express the characteristics of enterocytes. The cells were cultivated in minimum essential medium containing 5.5 mM D-glucose, Earle’s salts, and 2 mM L-alanyl-glutamine (MEM GlutaMAX™, Gibco, Bromont, QC, Canada) supplemented with 10% fetal bovine serum (FBS, Gibco), 1% non-essential amino acids, 50 U/mL penicillin, and 50 μg/mL streptomycin (Gibco) under humidified conditions (37 °C, 5% CO2, 95% humidity). The cells were grown for 3–4 days up to 80% confluence before trypsinization and sub-culture. For the experiments, the cells were seeded in TRANSWELL® plates (12 wells, 0.4 µm pore size; Costar®, Corning Incorporated, Corning, NY, USA) at a density of 90,000 cells/cm^2. Prior to toxin treatment, highly differentiated Caco-2 cells were obtained after 24–26 days of culture, with medium renewal every 2–3 days. Passage numbers between 30 and 40 were used for experiments.
(§2) PnTX-A, PnTX-G, PnTX-E, PnTX-H, and portimine stock solutions were prepared in methanol, while PnTX-F was provided in acetonitrile/acetic acid (50%/0.1%). For each toxin, the cells were incubated at 8, 16, and 32 ng/mL (diluted in HBSS) for 2 h, 6 h, and 24 h, with a final volume of 1.5% solvent. The controls were incubated with the cell culture medium containing the respective solvent of the toxin at 1.5%. Each experiment included three biological replicates. Two to three independent experiments were conducted.
Epithelial integrity was examined by measuring the TEER between the apical and basolateral compartments. After rinsing with a HBSS solution (HBSS, HEPES 5 mM, pH 7.4), the Caco-2 monolayers were equilibrated for 30 min at 37 °C with 300 and 1000 µL HBSS in the apical (A) and basolateral (B) chambers, respectively. Then, the content of the apical compartment was replaced with 500 µL HBSS-containing toxins. TEER was quantified with a Millipore Millicell Electrical Resistance System (ERS Millipore, EMD Millipore Corporation, Burlington, MA, USA). The mean value of two measurements per well before and after the treatment was calculated and multiplied by the surface of the insert to obtain Ω × cm^2. After blank subtraction, the results were presented as a percentage of the solvent control.

[2] = tested on: Caco-2 cell monolayers; assay: Lucifer Yellow paracellular permeability (barrier integrity); assay type: cell-based, human; settings: 24 h
Protocol: as §1, §2
For the assay, both compartments of the insert system were washed with Hank’s balanced salt solution (HBSS). Then, 0.5 mL of 0.1 mg/mL Lucifer Yellow in HBSS buffer and 1 mL of pure HBSS buffer were added to the apical and basolateral compartments, respectively. After a 2 h incubation at 37 °C, the media of the basolateral compartments were collected and the fluorescence of each compartment was measured in triplicate (excitation: 405 nm, emission: 520 nm) with a FLUOstar Optima microplate reader (BMG Labtech, Ortenberg, Germany). After subtraction of the blank (HBSS), the permeability of the […] was calculated against the value obtained for pure LY and reported as % permeability.

[3] = Toxin crossing and apparent permeability across Caco-2 cell monolayers (A to B), LC-MS/MS; assay type: in vitro ADME, human; settings: human, Caco-2; for Papp: 2 and 6 h, 8-32 ng/mL, read-out: Papp, range of means; for Papp at 2 h, 8 ng/mL / Papp at 6 h, 8 ng/mL: loaded 8 ng/mL; for Papp at 2 h, 8 ng/mL / Papp at 2 h, 16 ng/mL / Papp at 2 h, 32 ng/mL / Papp at 6 h, 8 ng/mL / Papp at 6 h, 16 ng/mL / Papp at 6 h, 32 ng/mL: A to B; for Papp at 2 h, 16 ng/mL / Papp at 6 h, 16 ng/mL: loaded 16 ng/mL; for Papp at 2 h, 32 ng/mL / Papp at 6 h, 32 ng/mL: loaded 32 ng/mL
Protocol: as §1, §2
(§3) The apical and basolateral compartments were collected after 2, 6, and 24 h treatment time. Parts of the solutions that were used to load the apical compartments were also stored (T0) to take into account the real concentration and not the estimated concentration. All the samples were stored at −20 °C until LC/MS analysis.
(§4) The LC-MS/MS analysis of toxins was implemented for the quantitative analysis of toxins. The LC system was an Agilent 1200 (Agilent Technologies, Santa Clara, CA, USA). The chromatographic separation was performed using a column Hypersil GOLD® C18 50 mm × 2.1 mm, 1.9 μm (Thermo Scientific, Waltham, MA, USA). Eluent A consisted of water, and eluent B of acetonitrile/water at a ratio of 95:5 (v/v), with both eluents containing 50 mM formic acid and 2 mM ammonium formate. The LC flow rate was 0.4 mL/min, and the gradient was programmed as follows: 10% B held for 0.5 min, 10–90% B in 5 min, 90% B held for 1 min, 90–10% B in 0.5 min, and 10% B held for 3.0 min, for a total run time of 10 min. The injection volume was 5 μL, while the column temperature was maintained at 40 °C. The column effluent was transferred via a divert valve (Valco Instruments Co., Inc., Houston, TX, USA), either to the mass spectrometer (between 1.7 and 5.5 min) or to waste.
(§5) The detection system was constructed with an API 4000 triple quadrupole mass spectrometer (Sciex, Framingham, MA, USA) equipped with an ElectroSpray Ionization (ESI) source (Turbo V). The mass spectrometer was operated in positive ESI mode. The source temperature was set at 600 °C, and the spray voltage was 5500 V. Air was used as a nebulizer gas and an auxiliary gas, with a gas pressure of 40 and 60 psi, respectively. Meanwhile, the curtain gas and collision gas were nitrogen, with a gas pressure of 15 and 8 psi, respectively. The mass spectrometer was operated in multiple reaction monitoring mode (MRM). One transition was used for quantification (Q) and another as a qualifier transition (q). A mass resolution of 0.7 Da full width at half maximum (FWHD) was set on the first (Q1) and the third (Q3) quadrupoles. Instrument control and data were handled with Analyst software version 1.5.1 (Sciex, Framingham, MA, USA).
(§6) The portimine and PnTX retention times varied between 2.7 and 4.4 min (Figure S1). […]

[4] = tested on: Caco-2 cell monolayers; assay: as above; assay type: in vitro ADME, human; settings: for % theoretical amount of toxin crossing the Caco-2 cell monolayers: relative to theoretical loaded concentration; for Percentage of toxin crossing the Caco-2 cell monolayers: A to B, relative to quantified T0; for amount of toxin crossing the intestinal barrier in vitro: regardless of the concentration loaded, 2 and 6 h; for permeability / oral bioavailability class from Caco-2 Papp: threshold Papp > 1.5 × 10^−6 cm·s^−1 = highly penetrative
Protocol: as §1, §2, §3, §4, §5, §6

[5] = tested on: mice; settings: mice, oral exposure; cited from earlier work
[6] = all concentrations (8, 16, 32 ng/mL)

Row | Compound | effect on LY permeability [2, 6] | Papp at 2 h, 8 ng/mL [3] [×10⁻⁶ cm/s] | Papp at 2 h, 16 ng/mL [3] [×10⁻⁶ cm/s] | Papp at 2 h, 32 ng/mL [3] [×10⁻⁶ cm/s] | Papp at 6 h, 8 ng/mL [3] [×10⁻⁶ cm/s] | Papp at 6 h, 16 ng/mL [3] [×10⁻⁶ cm/s] | Papp at 6 h, 32 ng/mL [3] [×10⁻⁶ cm/s] | % theoretical amount of toxin crossing the Caco-2 cell monolayers ([4]; 2 h, 8 ng/mL) [%] | % theoretical amount of toxin crossing the Caco-2 cell monolayers ([4]; 2 h, 16 ng/mL) [%] | % theoretical amount of toxin crossing the Caco-2 cell monolayers ([4]; 2 h, 32 ng/mL) [%] | Percentage of toxin crossing the Caco-2 cell monolayers ([4]; 2 h, loaded 8 ng/mL) | Percentage of toxin crossing the Caco-2 cell monolayers ([4]; 2 h, loaded 16 ng/mL) [%] | Percentage of toxin crossing the Caco-2 cell monolayers ([4]; 2 h, loaded 32 ng/mL) [%] | % theoretical amount of toxin crossing the Caco-2 cell monolayers ([4]; 6 h, 8 ng/mL) [%] | % theoretical amount of toxin crossing the Caco-2 cell monolayers ([4]; 6 h, 16 ng/mL) [%] | % theoretical amount of toxin crossing the Caco-2 cell monolayers ([4]; 6 h, 32 ng/mL) [%] | Percentage of toxin crossing the Caco-2 cell monolayers ([4]; 6 h, loaded 8 ng/mL) [%] | Percentage of toxin crossing the Caco-2 cell monolayers ([4]; 6 h, loaded 16 ng/mL) [%] | Percentage of toxin crossing the Caco-2 cell monolayers ([4]; 6 h, loaded 32 ng/mL) [%] | permeability / oral bioavailability class from Caco-2 Papp [4] | further results
1 | C=C1CCCC2=NCC(C)C(C)CC23CCC(C(=O)O)=CC3C2OC3(CC4CCCC5(CCC6(OC(CCC6(C)O)C1)O5)O4)CC(C)C(O)C2O3 (centres unmarked) [PnTX-A] | significant increase | 1.45 ± 1.03 | 1.4 ± 0.21 | 1.25 ± 0.39 | 2.13 ± 0.38 | 1.92 ± 0.95 | 1.48 ± 0.41 | 2.83 ± 2.1 | 2.5 ± 0.33 | 2.60 ± 0.80 | 2.35 ± 1.66% | 2.26 ± 0.34 | 2.01 ± 0.63 | 4.08 ± 0.52 | 3.42 ± 1.63 | 3.12 ± 1.05 | 3.44 ± 0.62 | 3.10 ± 1.53 | 2.39 ± 0.65 | poor permeability | effect on TEER ([1]; irrespective of time (2, 6, 24 h) and concentration (8, 16, 32 ng/mL)): no effect; Papp [3]: 1.25 to 2.13 ×10⁻⁶ cm/s; amount of toxin crossing the intestinal barrier in vitro [4]: < 4%
2 | C=C1CCCC2=NCC(C)C(C)CC23CCC(C(O)CCC(=O)O)=CC3C2OC3(CC(C)CC2O3)CC2OC3(CCC4(OC(CCC4(C)O)C1)O3)CC(C)C2O (centres unmarked) [PnTX-E] | significant increase | 3.75 | 1.5 ± 0.4 | 1.81 ± 0.28 | 2.04 ± 0.4 | 1.49 ± 0.65 | 2.38 ± 0.71 | 5.25 | 2.12 ± 0.71 | 2.47 ± 0.31 | 6.05 * % | 2.41 ± 0.65 | 2.92 ± 0.45 | 2.87 ± 0.53 | 2.12 ± 1.06 | 3.25 ± 0.88 | 3.29 ± 0.64 | 2.40 ± 1.06 | 3.85 ± 1.15 | poor permeability | effect on TEER ([1]; 24 h, 16 and 32 ng/mL): slight, but non-significant, decrease; Papp [3]: 1.49 to 3.75 ×10⁻⁶ cm/s; decrease of toxin amount in the apical compartment ([4]; 2 h, all the tested concentrations): approximately 15%; toxin amount in the apical compartment ([4]; 6 h): approximately 100 % of the loaded amount; amount of toxin crossing the intestinal barrier in vitro [4]: < 4%; macroscopic lesions on the intestine, other organs and tissues [5]: no macroscopic lesions
3 | C=CC1=CC2C3OC4(CC(C)CC3O4)CC3OC4(CCC5(OC(CCC5(C)O)CC(=C)CCCC5=NCC(C)C(C)CC52CC1)O4)CC(C)C3O (centres unmarked) [PnTX-H, Pinnatoxin H] |  | 19.5 ± 3.14 | 13.7 ± 4.83 | 18 ± 2.19 | 36 ± 5.4 | 30.3 ± 6.69 | 33.6 ± 2.43 | 3.96 ± 0.19 | 3.21±0.94 | 4.32 ± 1.10 | 31.52 ± 5.07% | 22.05 ± 7.80 | 29.07 ± 3.54 | 7.37 ± 1.42 | 7.10 ± 0.79 | 8.04 ± 1.80 | 58.06 ± 8.71 | 48.83 ± 11.22 | 54.22 ± 3.91 | high oral bioavailability | effect on TEER ([1]; 24 h, 32 ng/mL): slight, but non-significant, decrease; effect on passage of LY [2]: lower effect; effect on LY permeability ([2]; 32 ng/mL only): significant increase

Reference: paper PMC11766601, “A Comparative Study of the In Vitro Intestinal Permeability of Pinnatoxins and Portimine” (Marine Drugs, 2025)
